Assay results taken from patent US8222246B2, “Substituted isoxazoles” (Hoffmann-La Roche Inc., priority 2009, dated 2012).

target: T1, GABA A α5 (α5β3γ2) (Homo sapiens, UniProt P18507+P31644); assay: [3H]flumazenil competition binding assay, human GABA A α5 receptors in HEK293 cells; details: competition for [3H]flumazenil (0.5 nM); HEK293 cells expressing human (transiently transfected) receptors; means of two determinations; read-out: hKi GABA A α5
T1 construct: expressed in transfected cells; host or cells: HEK293 (transiently transfected), membranes
Procedure: Membrane Preparation and Binding Assay
The affinity of compounds at GABA A receptor subtypes was measured by competition for [3H]flumazenil (85 Ci/mmol; Roche) binding to HEK293 cells expressing rat (stably transfected) or human (transiently transfected) receptors of composition α1β3γ2, α2β3γ2, α3β3γ2 and α5β3γ2.
Cell pellets were suspended in Krebs-tris buffer (4.8 mM KCl, 1.2 mM CaCl2, 1.2 mM MgCl2, 120 mM NaCl, 15 mM Tris; pH 7.5; binding assay buffer), homogenized by polytron for ca. 20 sec on ice and centrifuged for 60 min at 4° C. (50000 g; Sorvall, rotor: SM24=20000 rpm). The cell pellets were resuspended in Krebs-tris buffer and homogenized by polytron for ca. 15 sec on ice. Protein was measured (Bradford method, Bio-Rad) and aliquots of 1 mL were prepared and stored at −80° C.
Radioligand binding assays were carried out in a volume of […] (96-well plates) which contained […] of cell membranes, [3H]flumazenil at a concentration of 1 nM for α1, α2, α3 subunits and 0.5 nM for α5 subunits and the test compound in the range of […]. Nonspecific binding was defined by 10^−5 M diazepam and typically represented less than 5% of the total binding. Assays were incubated to equilibrium for 1 hour at 4° C. and harvested onto GF/C uni-filters (Packard) by filtration using a Packard harvester and washing with ice-cold wash buffer (50 mM Tris; pH 7.5). After drying, filter-retained radioactivity was detected by liquid scintillation counting. Ki values were calculated using Excel-Fit (Microsoft) and are the means of two determinations.
Representative test results, obtained by the above described assay measuring binding affinity to HEK293 cells expressing human (h) receptors, are shown in table 1 below.

Ki [nM] | Structure (SMILES)
2.7 | O=C(NCC(F)(F)F)c1ccc(OCc2c(-c3ccc(F)c(F)c3)noc2CO)nc1 [Example 31, 6-[3-(3,4-Difluoro-phenyl)-5-hydroxymethyl-isoxazol-4-ylmethoxy]-N-(2,2,2-trifluoro-ethyl)-nicotinamide]
1.8 | CC(NC(=O)c1ccc(OCc2c(-c3ccc(F)c(F)c3)noc2CO)nc1)C(F)(F)F (centres unmarked) [Example 32, 6-[3-(3,4-Difluoro-phenyl)-5-hydroxymethyl-isoxazol-4-ylmethoxy]-N-(2,2,2-trifluoro-1-methyl-ethyl)-nicotinamide]
3.1 | O=C(NC1CC1)c1ccc(OCc2c(-c3ccc(F)c(F)c3)noc2CO)nc1 [Example 33, N-Cyclopropyl-6-[3-(3,4-difluoro-phenyl)-5-hydroxymethyl-isoxazol-4-ylmethoxy]-nicotinamide]
6.8 | O=C(NCC(F)(F)C(F)(F)F)c1ccc(OCc2c(-c3ccc(F)c(F)c3)noc2CO)nc1 [Example 35, 6-[3-(3,4-Difluoro-phenyl)-5-hydroxymethyl-isoxazol-4-ylmethoxy]-N-(2,2,3,3,3-pentafluoro-propyl)-nicotinamide]
7.7 | COCCNC(=O)c1ccc(OCc2c(-c3ccc(F)c(F)c3)noc2CO)nc1 [Example 36, 6-[3-(3,4-Difluoro-phenyl)-5-hydroxymethyl-isoxazol-4-ylmethoxy]-N-(2-methoxy-ethyl)-nicotinamide]
4.4 | CC[C@H](CO)NC(=O)c1ccc(OCc2c(-c3ccc(F)c(F)c3)noc2CO)nc1 [Example 37, 6-[3-(3,4-Difluoro-phenyl)-5-hydroxymethyl-isoxazol-4-ylmethoxy]-N-([R]-1-hydroxymethyl-propyl)-nicotinamide]
10.8 | O=C(c1ccc(OCc2c(-c3ccccn3)noc2CO)nc1)N1CCS(=O)(=O)CC1 [Example 43, (1,1-Dioxo-1,6-thiomorpholin-4-yl)-[6-(5-hydroxymethyl-3-pyridin-2-yl-isoxazol-4-ylmethoxy)-pyridin-3-yl]-methanone]
0.7 | CC(C)NC(=O)c1ccc(OCc2c(-c3ccccn3)noc2CO)nc1 [Example 44, 6-(5-Hydroxymethyl-3-pyridin-2-yl-isoxazol-4-ylmethoxy)-N-isopropyl-nicotinamide]
1.8 | O=C(NC1CCOC1)c1ccc(OCc2c(-c3ccccn3)noc2CO)nc1 (centres unmarked) [Example 45, 6-(5-Hydroxymethyl-3-pyridin-2-yl-isoxazol-4-ylmethoxy)-N-(tetrahydrofuran-3-yl)-nicotinamide]
2.5 | CN(C)NC(=O)c1ccc(OCc2c(-c3ccccn3)noc2CO)nc1 [Example 46, 6-(5-Hydroxymethyl-3-pyridin-2-yl-isoxazol-4-ylmethoxy)-nicotinic acid N′,N′-dimethyl-hydrazide]
1.1 | O=C(NC1CCOCC1)c1ccc(OCc2c(-c3ccccn3)noc2CO)nc1 [Example 47, 6-(5-Hydroxymethyl-3-pyridin-2-yl-isoxazol-4-ylmethoxy)-N-(tetrahydropyran-4-yl)-nicotinamide]
1.7 | O=C(NN1CCOCC1)c1ccc(OCc2c(-c3ccccn3)noc2CO)nc1 [Example 48, 6-(5-Hydroxymethyl-3-pyridin-2-yl-isoxazol-4-ylmethoxy)-N-morpholin-4-yl-nicotinamide]
8.7 | CCCCc1noc(CO)c1COc1ccc(C(=O)NC2(C)COC2)cn1 [Example 50, 6-(3-Butyl-5-hydroxymethyl-isoxazol-4-ylmethoxy)-N-(3-methyloxetan-3-yl)-nicotinamide]
13.7 | CCCCc1noc(CO)c1COc1ccc(C(=O)NC2CCC2)cn1 [Example 52, 6-(3-Butyl-5-hydroxymethyl-isoxazol-4-ylmethoxy)-N-cyclobutyl-nicotinamide]
51.3 | CCCCc1noc(CO)c1COc1ccc(C(=O)N2CCC2)cn1 [Example 53, Azetidin-1-yl-[6-(3-Butyl-5-hydroxymethyl-isoxazol-4-ylmethoxy)-pyridin-3-yl]-methanone]
67.2 | O=C(c1ccc(OCc2c(-c3ccccn3)noc2CO)nc1)N1CCOCC1 [Example 54, [6-(5-Hydroxymethyl-3-pyridin-2-yl-isoxazol-4-ylmethoxy)-pyridin-3-yl]-morpholin-4-yl-methanone]

Continued, compound first:

Structure (SMILES) | Ki [nM]
CC(C)(CO)NC(=O)c1ccc(OCc2c(-c3ccc(F)c(F)c3)noc2CO)nc1 [Example 34, 6-[3-(3,4-Difluoro-phenyl)-5-hydroxymethyl-isoxazol-4-ylmethoxy]-N-(2-hydroxy-1,1-dimethyl-ethyl)-nicotinamide] | 13.6
CC[C@@H](CO)NC(=O)c1ccc(OCc2c(-c3ccc(F)c(F)c3)noc2CO)nc1 [Example 38, 6-[3-(3,4-Difluoro-phenyl)-5-hydroxymethyl-isoxazol-4-ylmethoxy]-N-([S]-1-hydroxymethyl-propyl)-nicotinamide] | 1.3
Cn1cc(NC(=O)c2ccc(OCc3c(-c4ccc(F)c(F)c4)noc3CO)nc2)cn1 [Example 39, 6-[3-(3,4-Difluoro-phenyl)-5-hydroxymethyl-isoxazol-4-ylmethoxy]-N-(1-methyl-1H-pyrazol-4-yl)-nicotinamide] | 2.1
CC(C)(C)NC(=O)c1ccc(OCc2c(-c3ccc(F)c(F)c3)noc2CO)nc1 [Example 40, N-tert-Butyl-6-[3-(3,4-difluoro-phenyl)-5-hydroxymethyl-isoxazol-4-ylmethoxy]-nicotinamide] | 11.8
O=C(NN1CCOCC1)c1ccc(OCc2c(-c3ccc(F)c(F)c3)noc2CO)nc1 [Example 41, 6-[3-(3,4-Difluoro-phenyl)-5-hydroxymethyl-isoxazol-4-ylmethoxy]-N-morpholin-4-yl-nicotinamide] | 1.1
O=C(NN1CCCC1)c1ccc(OCc2c(-c3ccc(F)c(F)c3)noc2CO)nc1 [Example 42, 6-[3-(3,4-Difluoro-phenyl)-5-hydroxymethyl-isoxazol-4-ylmethoxy]-N-pyrrolidin-1-yl-nicotinamide] | 4.5
CCCCc1noc(CO)c1COc1ccc(C(=O)NC(C)C)cn1 [Example 49, 6-(3-Butyl-5-hydroxymethyl-isoxazol-4-ylmethoxy)-N-isopropyl-nicotinamide] | 16
CCCCc1noc(CO)c1COc1ccc(C(=O)NCC(F)(F)F)cn1 [Example 51, 6-(3-Butyl-5-hydroxymethyl-isoxazol-4-ylmethoxy)-N-(2,2,2-trifluoroethyl)-nicotinamide] | 10.2
CCCCc1noc(CO)c1COc1ccc(C(=O)N2CCS(=O)(=O)CC2)cn1 [Example 55, [6-(3-Butyl-5-hydroxymethyl-isoxazol-4-ylmethoxy)-pyridin-3-yl]-(1,1-dioxo-thiomorpholin-4-yl)-methanone] | 50.5
O=C(c1ccc(OCc2c(-c3ccc(F)cn3)noc2CO)nc1)N1CCS(=O)(=O)CC1 [Example 56, (1,1-Dioxo-1,6-thiomorpholin-4-yl)-{6-[3-(5-fluoro-pyridin-2-yl)-5-hydroxymethyl-isoxazol-4-ylmethoxy]-pyridin-3-yl}-methanone] | 13.5
